# Article PMC9964390, “Design, Synthesis and Phenotypic Profiling of Simplified Gedatolisib Analogues” (Pharmaceuticals, 2023)
# Where two headings read alike, the source gives them in different places.
# What was measured:
# [1] = system: K562; experiment: MTT cell viability assay; assay type: cell-based; details: Homo sapiens, K562, 72 h MTT; for Emax: read-out: Emax (maximum effect at maximum concentration used)
# Experimental: (§1) For the evaluation of cellular cytotoxicity in cancer cell lines, the compounds were tested at concentrations ranging from 0.00003 μM to 150 μM. Immortalized cancer cells were selected: PC-3 (PTEN-mutated prostate adenocarcinoma), MCF-7 (PI3KCA-mutated breast carcinoma), K562 (P53-mutated chronic myeloid leukemia), CCRF-CEM (acute lymphoblastic leukemia with mutation in PTEN) and MOLT-4 (acute lymphoblastic leukemia with mutation in PI3KR1/PTEN). Peripheral blood mononuclear cells (PBMCs) were used to determine the cytotoxic selectivity index (SI). All immortalized cells were cultured in RPMI 1640 medium with 10% (v/v) FBS, streptomycin + penicillin, at 37 °C in a humidified incubator containing 5% CO2.
# (§2) Cell viability was assessed by the MTT assay. The lines selected for this study were plated according to their respective densities, which ranged from 3 × 10^4 to 4 × 10^4 cells per well. Subsequently, they were treated with test compounds at different concentrations (0.00003 μM to 150 μM), gedatolisib and GSK-1059615.
# (§3) After incubation, the plates are centrifuged at 440× g for 10 min. Then, 110 μL of the supernatant was withdrawn and each well received 10μL of the MTT solution. The plate was again incubated in an oven at 37 °C and 5% CO2 for 3 to 4 h. At the end of the incubation time, 100 μL of SDS-HCL detergent was added to solubilize the formazan crystals. The plate was shaken on an automatic overnight shaker and then read at a wavelength of 595 nm on the Molecular Devices Spectramax M5 plate reader.
# [2] = system: MCF7; experiment: MTT cell viability assay; assay type: cell-based; details: Homo sapiens, MCF7, 72 h MTT; for CC50: 95% confidence interval in brackets; for Emax: read-out: Emax (maximum effect at maximum concentration used)
# Experimental: as §1, §2, §3
# [3] = system: PC-3; experiment: MTT cell viability assay; assay type: cell-based; details: Homo sapiens, PC-3, 72 h MTT; for CC50: 95% confidence interval in brackets; for Emax: read-out: Emax (maximum effect at maximum concentration used)
# Experimental: as §1, §2, §3
# [4] = PBMC viability assay (72 h MTT); assay type: cell-based, human; set-up: Emax at 72 h: dose or concentration left out as unconfirmed; details: human; for viability at 72 h, 0.3 µM: 0.3 µM (printed 0.3M); for viability at 72 h, 3 µM: 3 µM (printed 3M)
# Experimental: Donor blood was collected and EDTA (ethylenediamine tetraacetic acid) was added to the sterile laminar flow in a 1:20 ratio. In a 15 mL falcon tube, 4.5 mL of Ficoll gradient was added, and then 9 mL of blood was added over the gradient in a 1:2 ratio. The tubes were centrifuged for 40 min at a speed of 750× g with an acceleration of 2 and a brake of 0. The ring of mononuclear cells formed was collected and added to a new tube.
# Tubes with PBMCs were centrifuged in an incomplete RPMI medium for 10 min at 580× g with an acceleration of 8 and a brake of 9. The supernatant was discarded, and the cells were resuspended in 1 mL of RPMI medium supplemented with 20% […]. PBMCs were added to 96-well plates at a concentration of 1 × 10^5 cells per well. […]
# After incubation, each well received 20 µL of MTT (5 mg/mL), followed by incubation for 4 h in the CO2 oven and centrifugation for 12 min at 1200× g. The supernatant from each well was taken, and 100 µL of isopropyl alcohol was added to solubilize the formazan crystals. The absorbance of the plates was measured at 570 nm in the Flex Station equipment.
# [5] = system: MOLT-4 cell line; experiment: Muse Annexin V and Dead Cell Kit (phosphatidylserine externalization, membrane integrity); assay type: cell-based, human
# Experimental: For quantitative analysis of live, early and late apoptosis, and cell death on both the CCRF-CEM and MOLT-4 cell lines, treated with gedatolisib and compound 5f (LASSBio-2252), the Muse® Annexin V and Dead Cell Kit was used. Compounds were studied using three concentrations.
# The Annexin V and Dead Cell Kit (catalog n^o. MCH100105, Luminex) contains Annexin V, a phospholipid marker phosphatidylserine, and the molecule 7-AAD, a DNA marker for cells with a ruptured membrane. […] After incubation for 20 min at room temperature, the samples were read on the cytometer. The data with the histograms generated contain information on the percentage of viable cells, in early apoptosis, late apoptosis and dead cells. Samples from three independent experiments were performed in duplicate, and then statistical analysis was performed using the Prism6 statistical program.
# [6] = system: PI3K activation and phosphorylation in CCRF-CEM cell line; experiment: Muse PI3K Activation Dual Detection Kit; assay type: cell-based, human
# Experimental: The methodology evaluates the activation and phosphorylation of PI3K and was performed from the labelling with the Guava Muse Luminex® PI3K Activation Dual Detection Kit (catalog n^o. MCH200103, Luminex) containing the anti-AKT/PKB-PECy5 antibody to measure total PI3K and the anti-phospho-AKT (Ser473)-Alexa Fluor® 555 antibody for measurement of activated PI3K.
# Following 48 h of incubation in an incubator at 37 °C with 5% CO2, 1 mL of the cell solution was transferred to an Eppendorf tube, washed with PBS and centrifuged at 300× g for 5 min. The supernatant was discarded, and the pellet formed was resuspended in 500 µL of PBS. The samples were again centrifuged at 300× g for 5 min and the supernatant discarded.
# Then the cell solutions were resuspended in 200 µL of assay buffer (Part no. CS202124), followed by the addition of 200 µL of fixation buffer (Part n^o. CS202122), ending up with a total volume of 400 µL per sample. The samples were incubated for 5 min on ice and centrifuged at 300× g for 5 min and the supernatant discarded.
# Cells were permeabilized by adding 200 µL of ice-cold permeabilization buffer (Part n^o. CS202125) and then incubated on ice for 5 min and centrifuged at 300× g for 5 min, and the supernatant was discarded. The formed pellets were resuspended in 450 µL of assay buffer and vortexed at medium speed. In total, 90 µL of the solution from each sample was aliquoted into a new tube, and 10 µL of the cocktail solution containing Anti-phospho-Akt (Ser473), Alexa Fluor®555 and Anti-Akt/PKB, Pecy5 was added. The samples were homogenised and incubated for 30 min in the dark at room temperature.
# After the incubation step, 100 µL of assay buffer was added per sample and centrifuged at 300× g for 5 min, and the supernatant was discarded. The formed pellets were resuspended in 200 µL of assay buffer and vortexed, and the samples were read in Guava Muse Luminex®. Data from three independent experiments performed in duplicate were analysed in the Prism6 program to determine the percentage of cells expressing activated and inactivated PI3K.
# [7] = system: MOLT-4; experiment: Muse Count & Viability Kit (flow cytometry); details: for CC50 / Emax: Homo sapiens; for loss of potency in Muse Count & Viability Kit 72 h versus 72 h MTT: MOLT-4
# Experimental: Cell viability, cell death pattern, cell cycle and detection of PI3K activation were evaluated, and each analysis was performed using specific protocols of the Guava Muse Cell Analyzer.
# In total, 20 µL of the cell solution was added to 380 µL of the reagent in 1 mL Eppendorf tubes and incubated for 5 min at room temperature in the dark. Samples from three independent experiments carried out in duplicate were read on the cytometer, followed by statistical analysis of the histograms on Prism6 to determine the CC50.
# [8] = PBMC, read-out: % cell viability
# [9] = peripheral blood mononuclear cells (PBMCs), PBMC, read-out: % cell viability
smiles,measurement,setting,value
"c1ccc(N2CCN(c3nc(N4CCCNCC4)nc(N4CCOCC4)n3)CC2)cc1 [5f, 4-(4-(1,4-Diazepan-1-yl)-6-(4-phenylpiperazin-1-yl)-1,3,5-triazin-2-yl)morpholine]",CC50,[1]; 95% confidence interval in brackets,23.4 µM
same,Emax,[1],84%
same,CC50,[2],37 µM
same,Emax,[2],91%
same,CC50,[3],62.1 µM
same,Emax,[3],84%
same,Emax at 72 h,[4],26%
same,"viability at 72 h, 0.03 µM","[4]; PBMC, 0.03 µM (printed 0.03M), read-out: % cell viability",92%
same,"viability at 72 h, 0.3 µM",[4]; [8],88%
same,"viability at 72 h, 3 µM",[4]; [8],91%
same,"viability at 72 h, 30 µM","[4]; PBMC, 30 µM (printed 30M), read-out: % cell viability",75%
same,"viability at 72 h, 100 µM","[4]; PBMC, 100 µM (printed 100M), read-out: % cell viability",73%
same,viability at 6 µM,"[5]; Homo sapiens, MOLT-4 48 h, 6 μM, read-out: % de células, Viable",86%
same,viability at 60 µM,"[5]; Homo sapiens, MOLT-4 48 h, 60 μM, read-out: % de células, Viable",20%
same,reduction of the number of viable cells,"[5]; MOLT-4, tested at 10-fold concentration",80%
same,reduction of the number of viable cells,"[5]; MOLT-4, tested at its CC50 value",14%
same,percentage of inactivated cells raised to,[6]; concentration 10 times higher than its CC50,65%
same,percentage of inactivated cells raised to,[6]; tested at its CC50,30%
same,CC50,"[7]; MOLT-4, 48 h",51 µM
same,Emax,"[7]; MOLT-4, 48 h",90%
same,CC50,"[7]; MOLT-4, 72 h",60.8 µM
same,Emax,"[7]; MOLT-4, 72 h",92%
same,loss of potency in Muse Count & Viability Kit 72 h versus 72 h MTT,[7],≤ 10 fold
"CN(C)C1CCN(C(=O)c2ccc(NC(=O)Nc3ccc(-c4nc(N5CCOCC5)nc(N5CCOCC5)n4)cc3)cc2)CC1 [Gedatolisib, gedatolisib]",CC50,"[1]; K562, 72 h",> 24 µM
same,CC50,"[1]; K562, 72 h, 95% confidence interval in brackets",24.1 µM
same,Emax,[1],64%
same,CC50,[2],0.07 µM
same,Emax,[2],87%
same,CC50,[3],0.54 µM
same,Emax,[3],80%
same,"viability at 72 h, 0.0003 µM","[4]; peripheral blood mononuclear cells (PBMCs), PBMC, 0.0003 µM (printed 0.0003M), read-out: % cell viability",89%
same,"viability at 72 h, 0.003 µM","[4]; peripheral blood mononuclear cells (PBMCs), PBMC, 0.003 µM (printed 0.003M), read-out: % cell viability",85%
same,"viability at 72 h, 0.3 µM",[4]; [9],80%
same,"viability at 72 h, 3 µM",[4]; [9],85%
same,"viability at 72 h, 50 µM","[4]; peripheral blood mononuclear cells (PBMCs), PBMC, 50 µM (printed 50M), read-out: % cell viability",67%
same,viability at 0.15 µM,"[5]; Homo sapiens, MOLT-4 48 h, 0.15 μM, read-out: % de células, Viable",10%
same,viability at 1.5 µM,"[5]; Homo sapiens, MOLT-4 48 h, 1.5 μM, read-out: % de células, Viable",11%
same,viability at 30 µM,"[5]; Homo sapiens, MOLT-4 48 h, 30 μM, read-out: % de células, Viable",4%
same,reduction of cell viability,"[5]; MOLT-4, concentration 10 times lower than its CC50",90%
same,increase of the percentage of cells in the inactivated state,[6]; at its CC50 (~6 μM) and 10 times lower (0.6 μM),about 75%
same,CC50,"[7]; MOLT-4, 48 h",1.65 µM
same,Emax,"[7]; MOLT-4, 48 h",82%
same,CC50,"[7]; MOLT-4, 72 h",1.15 µM
same,Emax,"[7]; MOLT-4, 72 h",86%
same,loss of potency in Muse Count & Viability Kit 72 h versus 72 h MTT,[7],100 fold
